In patent US9643995B2, “Triterpene glycoside and triterpene compositions and methods of using same” (Research Foundation of the City University of New York, priority 2013, dated 2017):
Values after ≈ are worked out from the molar mass of the structure shown.

Experiments:
MDA-MB-453 cells [1] = assay: Apoptosis: caspase 3 activity; format: cell-based, human; details: actein 2 μg/ml, Herceptin 16 μg/ml, 48 h
activated Her2 (p-Her2) = assay: Western blot analysis of activated Her2 protein level; format: cell-based; details: 40 μg/ml, 24 h, normalized to β-acetin
Description: (§1) Effect of actein on the level of Her2 protein: The effect of actein on the level of Her2 and activated Her2 (p-Her2) protein was examined using Western blot analysis. […] The results validate an effect of actein on the Her2 pathway.

Her2 = assay: Western blot analysis of Her2 protein level; format: cell-based; details: 40 μg/ml, 24 h, normalized to β-acetin
Description: as §1

[2] = rat, in vivo, 35.7 mg/kg; cited from earlier work
MCF10F = assay: Growth inhibition of nonmalignant mammary epithelial cells by actein; format: cell-based, human
MDA-MB-453 cells [3] = assay: Apoptosis: DNA fragmentation; format: cell-based, human; details: actein 2 μg/ml, Herceptin 16 μg/ml, 48 h
calcium channels = assay: Calcium release from cells; format: cell-based; details: low concentrations (100 nM); stated as believed mode of action

With `CC(=O)O[C@@H]1C[C@@]23C[C@@]24CC[C@H](O[C@@H]2OC[C@@H](O)[C@H](O)[C@H]2O)C(C)(C)[C@@H]4CC[C@H]3[C@]2(C)C[C@@H]3O[C@]4(C[C@@H](C)[C@@H]3[C@@]12C)O[C@H](O)[C@@]1(C)O[C@@H]41` [actein, Actein] the “caspase 3 activity” value (MDA-MB-453 cells [1]) was 1.29 fold relative to control, the “level of p-Her2 protein” value (activated Her2 (p-Her2)) was 0.37 fold and the “level of Her2 protein” value (Her2) was 0.72 fold. The peak serum level [2] was “about 2.4 μg/ml”, the “time of peak serum level” value [2] was 6 h and the IC50 (MCF10F) was 42 µg/mL (≈ 62.1 µM). For the same molecule, the DNA fragmentation (MDA-MB-453 cells [3]) was 0.89 fold relative to control and the “effect on calcium channels” value (calcium channels) was “immediately opens calcium channels and releases calcium from cells”.
